Laboratory results taken from patent US10259753B2, “Multifunctional organic agricultural fertilizer composition and process for preparation thereof” (priority 2014, dated 2019).
Each block holds one molecule with its values, some of them ahead of it.

Assays:
[1] = pH and color of cypermethrin spray water treated with the composition; format: physicochemical; settings: composition 2 Ltr per 8000 sq. meter; control: normal well water
Procedure: (§1) Tomato crop infested with worms was sprayed with Cypermethrin 25% EC using normal well water and well water treated with the compositions of the invention. 4000 Sq. meter was treated only with water and another 8000 square meter plot was treated with composition of the invention as per Example No. 3 or 5. In both the plots, pest is controlled. In treated plot, the pest control is achieved at 95% and with 15% saving in the dosage of cypermethrin pesticide.

[2] = system: Pest worms; assay: Control of pest worms on tomato by Cypermethrin 25% EC in well water treated with the composition; format: in vivo; settings: Cypermethrin 125 ml/acre with composition, control: 150 ml/acre in normal well water
Procedure: The following compositions are used in the treatment for Tomato:
as §1

[3] = system: weeds; assay: Control of weeds in cotton crop by glyphosate spray in water treated with the composition; format: in vivo; settings: Glyfosate 750 ml/acre with composition, control: 1 Ltr/acre with plain water
Procedure: The cotton crop was treated with glyphosate at 1 Ltr per acre with plain water and Glyfosate used with the composition of Example 3 and 5 was used at 750 ml/acre.
(§2) The water was treated with composition of example 3 and 5 as given in Table 15 at 2 to 3 ml per ltr of water till the pH of 4.5 and 4.2 is achieved as indicated by the color achieved to the water.

[4] = pH and color of glyphosate spray water treated with the composition; format: physicochemical; settings: water treated with composition at 2 to 3 ml per ltr; control: plain water
Procedure: as §2

[5] = Urea volatilization: loss of soil-applied urea, from nitrogen content of soil samples; settings: 50 Kg urea in soil; 1 ltr of composition where used
Procedure: Experiment was carried out to check the effect of compositions of present invention to see the efficiency to prevent volatilization in urea.
It is noted that the pH of urea in soil in treatment T2 and T3 was adjusted to 4.5 to 5.0 due to addition of composition of invention.
The soil samples were collected from various selected locations wherever urea is applied and then checked for nitrogen content in laboratory after 0, 2, 4, 6, 8 and 10 days of urea application.

SMILES: CC1(C)C(C=C(Cl)Cl)C1C(=O)OC(C#N)c1cccc(Oc2ccccc2)c1 (centres unmarked) [Cypermethrin]
pH of Cypermethrin Spray solution [1]: 7.20
Control of Pest worms [2]: 78%

SMILES: O=C(O)CNCP(=O)(O)O [Glyfosate, glyphosate]
Control of weeds [3]: 72%
pH of Glyfosate spray solution [4]: 7.65

pH achieved of urea in soil [5]: pH = 7.5
SMILES: NC(N)=O [Plain Urea, Urea]
